Measured values: ChEMBL document CHEMBL1123664, “Preparation and antitumor activity of new mitomycin A analogues” (J Med Chem, 1987)
Where “and” joins values, the source holds several entries; their conditions need not be identical. Equal entries are not always repeated.

What was measured:
P388 [1] = test: Antitumor activity against intraperitoneally implanted P388 leukemia cells in mice expressed as ratio of median survival time for treated group to that of control group at an optimal dose of 12.8 mg/kg; format: functional, Mus musculus; settings: route intraperitoneal
P388 [2] = test: Antitumor activity against intraperitoneally implanted P388 leukemia cells in mice at an optimal dose of 12.8 mg/kg expressed as […] effective dose; format: functional; settings: Mus musculus, P388, ip, route intraperitoneal, read-out: MED
[3] = Partition coefficient (logP); format: physicochemical; settings: octanol/water
P388 [4] = test: Antitumor activity against intraperitoneally implanted P388 leukemia cells in mice expressed as ratio of median survival time for treated group to that of control group at an optimal dose of 3.2 mg/kg; format: functional, Mus musculus; settings: route intraperitoneal
P388 [5] = test: Antitumor activity against intraperitoneally implanted P388 leukemia cells in mice expressed as ratio of median survival time for treated group to that of control group at an optimal dose of 1.6 mg/kg; format: functional, Mus musculus; settings: route intraperitoneal
P388 [6] = test: Antitumor activity against intraperitoneally implanted P388 leukemia cells in mice at an optimal dose of 1.6 mg/kg expressed as […] effective dose; format: functional; settings: Mus musculus, P388, ip, route intraperitoneal, read-out: MED
B16 [7] = test: Antitumor activity against subcutaneously B16 melanoma cells in mice expressed as ratio of median survival time for treated group to that of control group at an optimal dose of 1.6 mg/kg; format: functional, Mus musculus; settings: route subcutaneous
B16 [8] = test: Antitumor activity against subcutaneously B16 melanoma cells in mice at an optimal dose of 1.6 mg/kg expressed as […] effective dose; format: functional; settings: Mus musculus, B16, sc, route subcutaneous, read-out: MED
B16 [9] = test: Antitumor activity against subcutaneously B16 melanoma cells in mice expressed as ratio of median survival time for treated group to that of control group at an optimal dose of 1.2 mg/kg; format: functional, Mus musculus; settings: route subcutaneous
B16 [10] = test: Antitumor activity against subcutaneously B16 melanoma cells in mice at an optimal dose of 1.2 mg/kg expressed as […] effective dose; format: functional; settings: Mus musculus, B16, sc, route subcutaneous, read-out: MED
P388 [11] = test: Antitumor activity against intraperitoneally implanted P388 leukemia cells in mice expressed as ratio of median survival time for treated group to that of control group at an optimal dose of 0.4 mg/kg; format: functional, Mus musculus; settings: route intraperitoneal
P388 [12] = test: Antitumor activity against intraperitoneally implanted P388 leukemia cells in mice at an optimal dose of 3.2 mg/kg expressed as […] effective dose; format: functional; settings: Mus musculus, P388, ip, route intraperitoneal, read-out: MED
B16 [13] = test: Antitumor activity against subcutaneously B16 melanoma cells in mice expressed as ratio of median survival time for treated group to that of control group at an optimal dose of 0.8 mg/kg; format: functional, Mus musculus; settings: route subcutaneous
P388 [14] = test: Antitumor activity against intraperitoneally implanted P388 leukemia cells in mice expressed as ratio of median survival time for treated group to that of control group at an optimal dose of 0.8 mg/kg; format: functional, Mus musculus; settings: route intraperitoneal
P388 [15] = test: Antitumor activity against intraperitoneally implanted P388 leukemia cells in mice at an optimal dose of 0.8 mg/kg expressed as […] effective dose; format: functional; settings: Mus musculus, P388, ip, route intraperitoneal, read-out: MED
B16 [16] = test: Antitumor activity against subcutaneously B16 melanoma cells in mice expressed as ratio of median survival time for treated group to that of control group at an optimal dose of 0.4 mg/kg; format: functional, Mus musculus; settings: route subcutaneous
B16 [17] = test: (§1) Antitumor activity against subcutaneously B16 melanoma cells in mice expressed as ratio of median survival time for treated group to that of control group at an optimal dose of 0.6 mg/kg; format: functional, Mus musculus; settings: route subcutaneous
B16 [18] = test: as §1; format: functional, Mus musculus; settings: route subcutaneous; remark: listed apart in the source
B16 [19] = test: (§2) Antitumor activity against subcutaneously B16 melanoma cells in mice expressed as ratio of median survival time for treated group to that of control group at an optimal dose of 1-3 mg/kg; format: functional, Mus musculus
B16 [20] = test: Antitumor activity against subcutaneously B16 melanoma cells in mice at an optimal dose of 0.8 mg/kg expressed as […] effective dose; format: functional, Mus musculus; settings: route subcutaneous; for minimal effective dose at 0.8 mg/kg: Mus musculus, B16, sc, read-out: MED
B16 [21] = test: Antitumor activity against subcutaneously B16 melanoma cells in mice at an optimal dose of 0.6 mg/kg expressed as […] effective dose; format: functional, Mus musculus; settings: route subcutaneous
P388 [22] = test: Antitumor activity against intraperitoneally implanted P388 leukemia cells in mice at an optimal dose of 0.8 mg/kg gexpressed as […] effective dose; format: functional; settings: Mus musculus, P388, ip, route intraperitoneal, read-out: MED
B16 [23] = test: Antitumor activity against subcutaneously B16 melanoma cells in mice expressed as ratio of median survival time for treated group to that of control group at an optimal dose of 0.2 mg/kg; format: functional, Mus musculus; settings: route subcutaneous
B16 [24] = test: Antitumor activity against subcutaneously B16 melanoma cells in mice at an optimal dose of 0.2 mg/kg expressed as […] effective dose; format: functional; settings: Mus musculus, B16, sc, route subcutaneous, read-out: MED
B16 [25] = test: Antitumor activity against subcutaneously B16 melanoma cells in mice at an optimal dose of 0.4 mg/kg expressed as […] effective dose; format: functional; settings: Mus musculus, B16, sc, route subcutaneous, read-out: MED
B16 [26] = test: as §2; format: functional, Mus musculus; remark: listed apart in the source
B16 [27] = test: Antitumor activity against subcutaneously B16 melanoma cells in mice expressed as ratio of median survival time for treated group to that of control group at an optimal dose of 0.3 mg/kg; format: functional, Mus musculus; settings: route subcutaneous
B16 [28] = test: Antitumor activity against subcutaneously B16 melanoma cells in mice at an optimal dose of 0.3 mg/kg expressed as […] effective dose; format: functional; settings: Mus musculus, B16, sc, route subcutaneous, read-out: MED

Which T/C (P388 [1]) does the source give for `CO[C@@]12C(COC(N)=O)C3=C(C(=O)C(C)=C(OCC(O)CO)C3=O)N1CC1NC12` (some centres undefined) here?
Its T/C is 225% and 205%.

What about the minimal effective dose at 12.8 mg/kg (P388 [2]) of the same molecule?
Its minimal effective dose at 12.8 mg/kg is 0.2 mg/kg.

Which results are given for `CO[C@@]12C(COC(N)=O)C3=C(C(=O)C(C)=C(OC(C)C)C3=O)N1CC1NC12` (some centres undefined)?
logP [3]: 1.26; T/C (P388 [4]): 174%

For `C=CCOC1=C(C)C(=O)C2=C(C1=O)C(COC(N)=O)[C@@]1(OC)C3NC3CN21` (some centres undefined), which logP [3] is on record?
Its logP is 0.87.

What about the T/C (P388 [5]) of the same molecule?
Its T/C is 156%.

And the minimal effective dose at 1.6 mg/kg (P388 [6])?
The minimal effective dose at 1.6 mg/kg was 0.1 mg/kg.

With `COC(COC1=C(C)C(=O)C2=C(C1=O)C(COC(N)=O)[C@@]1(OC)C3NC3CN21)OC` (some centres undefined) as the molecule, how does the T/C (B16 [7]) read?
Its T/C is 216%.

What about the minimal effective dose at 1.6 mg/kg (B16 [8]) of the same molecule?
The minimal effective dose at 1.6 mg/kg was 0.4 mg/kg.

What about the T/C (P388 [5]) of the same molecule?
Its T/C is 269%.

And the minimal effective dose at 1.6 mg/kg (P388 [6])?
The minimal effective dose at 1.6 mg/kg was < 0.025 mg/kg.

Which results are given for `CO[C@@]12C(COC(N)=O)C3=C(C(=O)C(C)=C(OCCC#N)C3=O)N1CC1NC12` (some centres undefined)?
T/C (B16 [9]): 141%; minimal effective dose at 1.2 mg/kg (B16 [10]): 0.8 mg/kg; T/C (P388 [11]): 200%

Which logP [3] does the source give for `CO[C@@]12C(COC(N)=O)C3=C(C(=O)C(C)=C(OCCO)C3=O)N1CC1C2N1C` (some centres undefined) here?
The logP was 0.67.

And the T/C (P388 [4])?
The T/C was 222%.

And the minimal effective dose at 3.2 mg/kg (P388 [12])?
The minimal effective dose at 3.2 mg/kg was 0.05 mg/kg.

What does the source list for `C#CCOC1=C(C)C(=O)C2=C(C1=O)C(COC(N)=O)[C@@]1(OC)C3NC3CN21` (some centres undefined)?
logP [3]: 0.74; T/C (B16 [13]): 204%; T/C (P388 [14]): 150%; minimal effective dose at 0.8 mg/kg (P388 [15]): < 0.05 mg/kg

What does the source list for `CO[C@@]12C(COC(N)=O)C3=C(C(=O)C(C)=C(OCCN4CCOCC4)C3=O)N1CC1NC12` (some centres undefined)?
logP [3]: 0.49; T/C (B16 [16]): 113%; T/C (P388 [4]): 256%; minimal effective dose at 3.2 mg/kg (P388 [12]): < 0.05 mg/kg

Which results are given for `CO[C@@]12C(COC(N)=O)C3=C(C(=O)C(C)=C(OCCN(C)C)C3=O)N1CC1NC12` (some centres undefined)?
logP [3]: 0.46; T/C (B16 [7]): 220%; minimal effective dose at 1.6 mg/kg (B16 [8]): 0.4 mg/kg; T/C (P388 [4]): 281%; minimal effective dose at 3.2 mg/kg (P388 [12]): < 0.025 mg/kg

Which logP [3] does the source give for `CO[C@@]12C(COC(N)=O)C3=C(C(=O)C(C)=C(OCC4COC(C)(C)O4)C3=O)N1CC1NC12` (some centres undefined) here?
Its logP is 0.82.

And the T/C (B16 [17])?
The T/C was 221%.

And the T/C (B16 [18])?
Its T/C is 240%.

What about the T/C (B16 [13]) of the same molecule?
The T/C was 198%.

And the T/C (B16 [19])?
The T/C was 133% and 147% and 170%.

What about the minimal effective dose at 0.8 mg/kg (B16 [20]) of the same molecule?
Its minimal effective dose at 0.8 mg/kg is 0.4 mg/kg.

What about the MED (B16 [21]) of the same molecule?
The MED was <0.3 mg/kg and 0.1 mg/kg.

What about the T/C (P388 [14]) of the same molecule?
The T/C was 178%.

What about the minimal effective dose at 0.8 mg/kg (P388 [22]) of the same molecule?
The minimal effective dose at 0.8 mg/kg was < 0.05 mg/kg.

For `CCOC1=C(C)C(=O)C2=C(C1=O)C(COC(N)=O)[C@@]1(OC)C3NC3CN21` (some centres undefined), which logP [3] is on record?
The logP was 0.76.

And the T/C (B16 [23])?
The T/C was 215%.

What about the T/C (B16 [16]) of the same molecule?
Its T/C is 212%.

What about the minimal effective dose at 0.2 mg/kg (B16 [24]) of the same molecule?
Its minimal effective dose at 0.2 mg/kg is 0.1 mg/kg.

What about the minimal effective dose at 0.4 mg/kg (B16 [25]) of the same molecule?
The minimal effective dose at 0.4 mg/kg was < 0.4 mg/kg.

And the T/C (P388 [5])?
The T/C was 188%.

What about the minimal effective dose at 1.6 mg/kg (P388 [6]) of the same molecule?
Its minimal effective dose at 1.6 mg/kg is < 0.05 mg/kg.

Which logP [3] does the source give for `CO[C@@]12C(COC(N)=O)C3=C(C(=O)C(C)=C(OCC4CCCO4)C3=O)N1CC1NC12` (some centres undefined) here?
Its logP is 1.29.

What about the T/C (B16 [13]; 0.8 mg/kg) of the same molecule?
Its T/C is 212% and 198%.

What about the T/C (B16 [26]) of the same molecule?
The T/C was 147%.

What about the T/C (B16 [19]) of the same molecule?
The T/C was 133%.

And the minimal effective dose at 0.8 mg/kg (B16 [20])?
The minimal effective dose at 0.8 mg/kg was 0.2 mg/kg.

What about the MED (B16 [20]) of the same molecule?
The MED was 0.2 mg/kg.

And the T/C (P388 [14])?
The T/C was 239%.

What about the minimal effective dose at 0.8 mg/kg (P388 [15]) of the same molecule?
Its minimal effective dose at 0.8 mg/kg is < 0.05 mg/kg.

Which results are given for `COC1=C(C)C(=O)C2=C(C1=O)[C@@H](COC(N)=O)[C@@]1(OC)[C@H]3N[C@H]3CN21` [MITOMYCIN A]?
logP [3]: 0.26; T/C (B16 [27]): 177%; minimal effective dose at 0.3 mg/kg (B16 [28]): 0.05 mg/kg; T/C (P388 [4]): 180%; minimal effective dose at 3.2 mg/kg (P388 [12]): 0.05 mg/kg
